Reference: patent US11693005B2, “Methods for identifying treatments that reduce the actions of substances of abuse and addiction” (Florida Atlantic University Board of Trustees, priority 2018, dated 2023)
Entries after “also recorded” stand apart in the source; their conditions may differ.

Columns and labels:
[1] = system: MBLAC1 WT and MBLAC1 KO mice; test: Effect of repeated Cef on cocaine-induced locomotion, open field; type: in vivo, mouse; conditions: Cef 200 mg/kg IP once daily 10 days, cocaine 10 mg/kg 24 h later
Method: Animals: All mice were used in accordance with protocols approved by the Florida Atlantic University Institutional Animal Care and Use Committee. Mice were group-housed on a 12 h/12 h light/dark cycle and given ad libitum access to food and water. Breeding was accomplished with mating of heterozygous males with heterozygous females. Male and female mice 11-13 weeks old at the start of the experiment were used in testing the effects of repeated ceftriaxone on response to cocaine in the open field assay. Data from males and females were combined.
Repeated Cef treatment/acute cocaine administration: MBLAC1 wild-type (WT, MBLAC1^+/+) and knockout mice (MBLAC1^−/−) were used in this experiment. Mice were injected IP once daily for 10 days with 200 mg/kg ceftriaxone (CEF) or saline. Twenty-four hours following the last CEF injection, mice were injected with 10 mg/kg cocaine or saline followed immediately by testing in open field activity chambers (Med Associates, Fairfax, Vt.) for 60 minutes. Locomotor activity was evaluated by photocells in the X, Y and Z dimensions. Horizontal beam breaks, vertical beam breaks, and repetitive movements were recorded and measures, including distance traveled, vertical rearing and stereotypic counts, were calculated. Data were analyzed in 5 min time bins within session, and for the first 30 min following cocaine injection. Data were analyzed by two-way ANOVA repeated measures, with time bin as the repeated measure, or by two-way ANOVA for 30 min cumulated data. At the end of behavior, mice were euthanized by CO2.
The methods were performed essentially as described in Tallarida et al. Neurosci Lett vol. 556, p. 155-159, 2013.

[2] = system: MBLAC1; test: MBLAC1 pulldown with Cef-conjugated CN-Br Sepharose beads, competition by free Cef; type: binding
[3] = target: T1, human MBLAC1 (Homo sapiens, UniProt A4D2B0); test: Backscattering interferometry (BSI) binding to lysates of TET-induced T-REx cells expressing human MBLAC1; conditions: 5 μM and 50 μM
T1 construct: mouse and human Mblac1 cDNAs were subcloned into pcDNA5/FRT/TO vector; expressed in transfected cells; cell lysate
T1 sequence (A4D2B0 1-266): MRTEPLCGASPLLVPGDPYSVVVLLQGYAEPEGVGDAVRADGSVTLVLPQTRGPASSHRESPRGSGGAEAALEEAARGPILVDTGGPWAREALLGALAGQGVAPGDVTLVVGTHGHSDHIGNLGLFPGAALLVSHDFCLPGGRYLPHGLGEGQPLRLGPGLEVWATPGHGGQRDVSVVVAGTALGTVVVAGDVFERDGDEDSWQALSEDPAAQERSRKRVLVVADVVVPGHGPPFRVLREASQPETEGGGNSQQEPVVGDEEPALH
Method: (§1) HEK Flp-In T-REx-293 cells (T-REx) expressing mouse or human MBLAC1 proteins were generated per manufacturer's (ThermoFisher, Waltham, Mass., USA) instructions. Briefly, mouse and human Mblac1 cDNAs were subcloned into pcDNA5/FRT/TO vector and then co-transfected with pOG44 plasmid (encoding Flp recombinase) by lipid based transfection into Flp-In T-REx-293 cells using TransIT-LT1 (Mirus, Madison, Wis.). Stable integrants were isolated following selection with 100 μg/ml hygromycin. Expression of MBLAC1 protein was induced by addition of 1 μg/mL tetracycline (TET) to the media. […]
(§2) To assess the binding of unlabeled Cef with MBLAC1 in cell and tissue lysates, BSI was utilized. […] RI changes are quantified by comparing fringe shifts between test and reference samples.
(§3) Lysates for BSI contained Cef at concentrations of 0 μM, 5 μM, and 50 μM and concentrations of either 300 μg/mL (mouse cell lysates) or 100 μg/mL (human cell lysates and mouse brain lysates) protein. […] To obtain BSI signals, the sample with 0 μM Cef was injected into the channel in a stop-flow manner using a vacuum and allowed to reach temperature and pressure equilibrium (˜10 sec) at which point the phase value (BSI signal) was measured for 20 sec. Specific BSI signal was determined by subtracting Cef only signal from Cef-lysate signals. […]

[4] = target: T2, MBLAC1 (Mus musculus, UniProt Q8BWY4); test: BSI binding to mouse frontal cortex lysates, with and without MBLAC1 immunodepletion
T2 construct: from tissue; host or cells: mouse (C57BL/6J) frontal cortex, 100,000 x g supernatant
T2 sequence (Q8BWY4 1-260): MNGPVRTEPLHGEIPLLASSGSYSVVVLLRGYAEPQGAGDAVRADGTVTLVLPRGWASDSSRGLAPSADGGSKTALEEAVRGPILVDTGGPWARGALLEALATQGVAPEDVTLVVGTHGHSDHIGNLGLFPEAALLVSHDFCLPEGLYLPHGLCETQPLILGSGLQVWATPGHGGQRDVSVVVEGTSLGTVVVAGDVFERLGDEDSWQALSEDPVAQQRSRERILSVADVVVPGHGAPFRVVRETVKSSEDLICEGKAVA
Method: Wild type C57BL/6J mice (Jackson Labs, Bar Harbor, Me.) were rapidly decapitated and frontal cortex was dissected. Tissue was homogenized in ice cold 20 mM HEPES buffer (pH 7.4) using a Dounce homogenizer (Wheaton, Millville, N.J.), and then sonicated (F60 sonic dismembrator, Fisher Scientific, Waltham, Mass.) using 5, 1 sec pulses. Lysates were then centrifuged at 100,000×g for 30 min. Supernatants were collected, diluted with 2× lysis buffer (40 mM HEPES, 220 mM KCl, 20 mM NaCl, 4 mM MgCl, 10 mM KH2PO4, 500 μM ZnSO4) and protein concentration determined (BCA Protein Assay, ThermoFisher, Waltham, Mass.). […]
as §2, §3

[5] = target: T3, mouse MBLAC1 (Mus musculus, UniProt Q8BWY4); test: Backscattering interferometry (BSI) binding of unlabeled Cef to lysates of TET-induced T-REx cells expressing mouse MBLAC1; conditions: 5 μM and 50 μM
T3 construct: mouse and human Mblac1 cDNAs were subcloned into pcDNA5/FRT/TO vector; expressed in transfected cells; cell lysate
T3 sequence (Q8BWY4 1-260): T2 sequence (Q8BWY4 1-260)
Method: as §1, §2, §3

Mean reduction in MBLAC1 binding to immobilized Cef ([2]; 50 μM free Cef preincubated with lysate, n=6) [%] | BSI binding signal ([4]; mouse frontal cortex lysate, 5 μM and 50 μM) | Structure (SMILES) | Effect on cocaine-induced locomotion (ambulatory distance, first 30 min) ([1]; MBLAC1 KO mice) | Effect on cocaine-induced locomotion (ambulatory distance, first 30 min) ([1]; MBLAC1 KO mice, listed as CEF) | Effect on cocaine-induced locomotion (ambulatory distance, first 30 min) ([1]; MBLAC1 WT mice) | Effect on cocaine-induced locomotion (ambulatory distance, first 30 min) ([1]; MBLAC1 WT mice, listed as CEF) | MBLAC1 capture by Cef-conjugated beads ([2]; lysates preincubated with Cef 50 μM) | BSI binding signal [3] | BSI binding signal ([4]; mouse frontal cortex lysate immunodepleted of MBLAC1 with antibody #80) | BSI binding signal [5]
52.4±9.3 | shows binding signal with Cef | CO/N=C(\C(=O)N[C@@H]1C(=O)N2C(C(=O)O)=C(CSc3nc(=O)c(=O)[nH]n3C)CS[C@H]12)c1csc(N)n1 [Cef, ceftriaxone] | no ability to attenuate cocaine actions | had no effect on the response to cocaine | the locomotor activating effects of cocaine were lost | completely blocked the effects of cocaine | significantly diminished MBLAC1 capture | concentration-dependent, heat-sensitive BSI binding signals; also recorded: significant, dose-dependent BSI signals | eliminated Cef binding activity; also recorded: the Cef binding signal was abolished | concentration-dependent, heat-sensitive BSI binding signals; also recorded: significant, dose-dependent BSI signals; also recorded: Significant dose-dependent BSI signals
– | – | CC(=O)OCC1=C(C(=O)O)N2C(=O)[C@@H](NC(=O)CCC[C@@H](N)C(=O)O)[C@H]2SC1 [CephC, cephalosporin C] | – | – | – | – | – | – | – | non-significant reduction in BSI signal; also recorded: a significant CephC BSI signal (FIG. 3D) was not seen
